Results on eight compounds are retold here after ChEMBL document CHEMBL1153872, “Synthesis, analgesic, anti-inflammatory and antimicrobial studies of 2,4-dichloro-5-fluorophenyl containing thiazolotriazoles” (2009).

Molecules are shown by their SMILES.

Common to all, as to type: functional
In assay [1] the test system is Trichophyton mentagrophytes. Nature of the assay: Antifungal activity against Trichophyton mentagrophytes after 48 hrs by twofold broth dilution method. (In general: Dilution methods test growth across graded concentrations, often in twofold steps.)
The test system of assay [2] is Mus musculus. Nature of the assay: Analgesic activity in albino mouse assessed as response latency time to pain stimulus at 25 mg/kg, po after 3 hrs by hot plate method. More on the design: unit not given here. On the technique in general: In hot-plate and tail-flick tests a longer latency is read as antinociception.
The test system of assay [3] is Candida albicans. Description: Antifungal activity against Candida albicans after 48 hrs by twofold broth dilution method.
Assay [4] deals with Rattus norvegicus. Nature of the assay: Antiinflammatory activity in Wister albino rat assessed as inhibition of carrageenan-induced paw edema at 50 mg/kg, po administered 30 mins before carrageenan challenge measured after 3 hrs relative to control. On the technique in general: In the carrageenan paw model, swelling and tenderness develop within hours.
The test system of assay [5] is Escherichia coli. Nature of the assay: Antibacterial activity against Escherichia coli after 24 hrs by broth dilution technique.
Assay [6] deals with Pseudomonas aeruginosa. Description: Antibacterial activity against Pseudomonas aeruginosa after 24 hrs by broth dilution technique.
In assay [7] the test system is Streptococcus pyogenes. Nature of the assay: Antibacterial activity against Streptococcus pyogenes after 24 hrs by disk diffusion method.
Assay [8] has as its system Klebsiella pneumoniae. Description: Antibacterial activity against Klebsiella pneumoniae after 24 hrs by disk diffusion method.
Assay [9] concerns Escherichia coli. Nature of the assay: Antibacterial activity against Escherichia coli after 24 hrs by disk diffusion method.
The test system of assay [10] is Mus musculus. Nature of the assay: Analgesic activity in albino mouse assessed as response latency time to pain stimulus at 25 mg/kg, po after 1 hr by hot plate method. More on the design: unit not given here.
The test system of assay [11] is Pseudomonas aeruginosa. Description: Antibacterial activity against Pseudomonas aeruginosa after 24 hrs by disk diffusion method.
Assay [12] has as its system Streptococcus pyogenes. Description: Antibacterial activity against Streptococcus pyogenes after 24 hrs by broth dilution technique.
The subject of assay [13] is Talaromyces marneffei. Description: Antifungal activity against Penicillium marneffei after 48 hrs by twofold broth dilution method.
Assay [14] deals with Trichophyton mentagrophytes. Nature of the assay: Antifungal activity against Trichophyton mentagrophytes after 3 to 4 days by agar diffusion method.
The test system of assay [15] is Klebsiella pneumoniae. Nature of the assay: Antibacterial activity against Klebsiella pneumoniae after 24 hrs by broth dilution technique.
Assay [16] deals with Staphylococcus aureus. Nature of the assay: Antibacterial activity against Staphylococcus aureus after 24 hrs by broth dilution technique.
In assay [17] the test system is Aspergillus niger. Description: Antifungal activity against Aspergillus niger after 3 to 4 days by agar diffusion method.
Assay [18] relates to Staphylococcus aureus. Description: Antibacterial activity against Staphylococcus aureus after 24 hrs by disk diffusion method.
Assay [19] has as its system Aspergillus fumigatus. Description: Antifungal activity against Aspergillus fumigatus after 48 hrs by twofold broth dilution method.
The test system of assay [20] is Talaromyces marneffei. Description: Antifungal activity against Penicillium marneffei after 3 to 4 days by agar diffusion method.
The subject of assay [21] is Aspergillus niger. Description: Antifungal activity against Aspergillus niger after 48 hrs by twofold broth dilution method.
The subject of assay [22] is Aspergillus fumigatus. Description: Antifungal activity against Aspergillus fumigatus after 3 to 4 days by agar diffusion method.
The subject of assay [23] is Candida albicans. Description: Antifungal activity against Candida albicans after 3 to 4 days by agar diffusion method.

In general, inhibition in vivo refers to the percentage by which the read-out fell short of the control. In the case of `Fc1cc(-c2nc3scc(-c4cc(F)c(Cl)cc4Cl)n3n2)c(Cl)cc1Cl`, the MIC in [1], in assay [3], in assay [5], in assay [6], in assay [12] and in [13] was 6.25 microg/cm3 throughout. Also, the MIC is 6.25 microg/cm3 in assay [15], 6.25 microg/cm3 in assay [16], 6.25 microg/cm3 in assay [19] and 12.5 microg/cm3 in assay [21]. The Time is recorded as 13.6 in assay [2] and 14.21 in assay [10]. Moreover, in assay [4], the inhibition in vivo at 50 mg/kg worked out at 59.4%. Also, the “Diameter of inhibition zone” value in assay [7] turned out to be 24 mm; in assay [8], 19 mm; in [9] it was 28 mm; in assay [11], 30 mm; in assay [14], 18 mm; in assay [17] it was 22 mm. Moreover, the “Diameter of inhibition zone” value in assay [18] came out at 23 mm; in assay [20], 23 mm; in assay [22], 20 mm; in [23], 18 mm.

Consider `O=C(O)c1cn(C2CC2)c2cc(N3CCNCC3)c(F)cc2c1=O` [CIPROFLOXACIN], for which the MIC in [5], in assay [6], in assay [12], in assay [15] and in assay [16] was 6.25 microg/cm3 in each case. The “Diameter of inhibition zone” value in [7] worked out at 25 mm; in [8], 21 mm; in assay [9], 29 mm; in [11], 32 mm; in assay [18], 23 mm.

Regarding `COc1ccc(-c2csc3nc(-c4cc(F)c(Cl)cc4Cl)nn23)cc1`, the MIC in assay [1] worked out at 12.5 microg/cm3; in assay [3], 6.25 microg/cm3; in assay [5] it was 6.25 microg/cm3; in [6] it was 6.25 microg/cm3; in assay [12] it was 6.25 microg/cm3; in [13], 6.25 microg/cm3. For the same compound, the MIC in assay [15] is given as 6.25 microg/cm3; in [16] it was 6.25 microg/cm3; in [19], >100 microg/cm3; in assay [21], 6.25 microg/cm3. Also, the values for the Time in assay [2] and in [10] were 11.96 and 11.1, respectively. In addition, in [4], the inhibition in vivo at 50 mg/kg is 40.6%. Also, the “Diameter of inhibition zone” value is on record as 23 mm in assay [7]; 19 mm in [8]; 25 mm in assay [9]; 30 mm in assay [11]; 14 mm in [14]; 20 mm in [17]. Further, the “Diameter of inhibition zone” value in assay [18] was 21 mm; in assay [20], 17 mm; in [23] it was 17 mm.

As to `Fc1cc(-c2nc3scc(-c4ccc(Br)cc4)n3n2)c(Cl)cc1Cl`, the MIC in assay [1] is recorded as >100 microg/cm3; in assay [3], 12.5 microg/cm3; in [5], 6.25 microg/cm3; in assay [6] it was 6.25 microg/cm3; in assay [12] it was 6.25 microg/cm3; in assay [13], 25 microg/cm3. Further, the MIC in [15] came to 6.25 microg/cm3; in assay [16], 6.25 microg/cm3; in assay [19], 12.5 microg/cm3; in assay [21], 25 microg/cm3. The Time in assay [2] was 13.9; in assay [10], 14.8. In addition, the inhibition in vivo at 50 mg/kg in assay [4] turned out to be 25%. Also, the “Diameter of inhibition zone” value was 25 mm in assay [7]; 19 mm in [8]; 24 mm in assay [9]; 29 mm in assay [11]; 9 mm in [17]; 21 mm in assay [18]. Besides, the “Diameter of inhibition zone” value worked out at 10 mm in assay [20], 12 mm in [22] and 14 mm in assay [23].

Turning to `Fc1cc(-c2nc3scc(-c4ccc(Cl)cc4Cl)n3n2)c(Cl)cc1Cl`, the MIC in assay [1] was >100 microg/cm3; in assay [3], 25 microg/cm3; in assay [5], 12.5 microg/cm3; in assay [6] it was 12.5 microg/cm3; in assay [12], 6.25 microg/cm3; in [13] it was 12.5 microg/cm3. Moreover, the MIC in assay [15] is 12.5 microg/cm3; in [16], 12.5 microg/cm3; in assay [19] it was 25 microg/cm3; in assay [21], 12.5 microg/cm3. Further, the Time was determined as 9.6 in assay [2] and 8.96 in assay [10]. In addition, the inhibition in vivo at 50 mg/kg in assay [4] amounted to 17.2%. Further, the “Diameter of inhibition zone” value in assay [7] is given as 15 mm; in [8], 13 mm; in assay [9], 11 mm; in assay [11] it was 13 mm; in assay [17] it was 14 mm; in assay [18] it was 14 mm. The entries for the “Diameter of inhibition zone” value in assay [20], in assay [22] and in [23] were 12 mm, 8 mm and 10 mm, respectively.

As to `O=[N+]([O-])c1ccc(-c2csc3nc(-c4cc(F)c(Cl)cc4Cl)nn23)cc1`, the MIC in [1] was 25 microg/cm3; in assay [3] it was 6.25 microg/cm3; in [5], 6.25 microg/cm3; in [6], 6.25 microg/cm3; in [12], 12.5 microg/cm3; in assay [13] it was 6.25 microg/cm3. Besides, the MIC in [15] is 12.5 microg/cm3; in [16], 12.5 microg/cm3; in [19] it was 6.25 microg/cm3; in [21] it was >100 microg/cm3. For the same compound, the figures for the Time in assay [2] and in assay [10] were 10.9 and 11.2, respectively. In addition, the inhibition in vivo at 50 mg/kg in assay [4] is 10.9%. For the same compound, the “Diameter of inhibition zone” value was 12 mm in [7]; 11 mm in assay [8]; 15 mm in [9]; 15 mm in assay [11]; 10 mm in [14]; 12 mm in assay [18]. Moreover, the figures for the “Diameter of inhibition zone” value in [20], in assay [22] and in assay [23] were 18 mm, 17 mm and 16 mm, respectively.

For `Cc1ccc(-c2csc3nc(-c4cc(F)c(Cl)cc4Cl)nn23)cc1`, the MIC was 25 microg/cm3 in assay [1]; >100 microg/cm3 in assay [3]; 12.5 microg/cm3 in assay [5]; 6.25 microg/cm3 in assay [6]; 12.5 microg/cm3 in [12]; >100 microg/cm3 in assay [13]. The MIC in assay [15] was 6.25 microg/cm3; in assay [16] it was 6.25 microg/cm3; in assay [19], 6.25 microg/cm3; in assay [21] it was 12.5 microg/cm3. The Time in [2] came to 8.4; in assay [10], 8.2. Further, the inhibition in vivo at 50 mg/kg in [4] amounted to 0%. The “Diameter of inhibition zone” value in assay [7] amounted to 14 mm; in assay [8] it was 15 mm; in assay [9], 13 mm; in assay [11], 14 mm; in assay [14], 8 mm; in assay [17] it was 11 mm. Moreover, the “Diameter of inhibition zone” value in [18] worked out at 15 mm; in assay [22], 16 mm.

In the case of `C[C@@H]1[C@H](O)[C@@H](C)/C=C/C=C/C=C/C=C/C=C/C=C/C=C/[C@H](O[C@@H]2O[C@H](C)[C@@H](O)[C@H](N)[C@@H]2O)C[C@@H]2O[C@](O)(C[C@@H](O)C[C@@H](O)[C@H](O)CC[C@@H](O)C[C@@H](O)CC(=O)O[C@H]1C)C[C@H](O)[C@H]2C(=O)O` [AMPHOTERICIN B], the MIC was found to be 6.25 microg/cm3 in assay [1]; 6.25 microg/cm3 in assay [3]; 6.25 microg/cm3 in assay [13]; 6.25 microg/cm3 in assay [19]; 12.5 microg/cm3 in assay [21]. Besides, the “Diameter of inhibition zone” value turned out to be 19 mm in assay [14]; 25 mm in assay [17]; 23 mm in assay [20]; 21 mm in assay [22]; 20 mm in assay [23].
